From PMC12264794, “Homoleptic complexes of titanium(IV) fused with O^N^O Schiff base derivatives: design, BSA–DNA interaction, molecular docking, DFT and cytotoxicity” (RSC Advances, 2025)
Like-named read-outs stand apart in the source and are kept apart here.

Legend:
CT-DNA = assay: Competitive EtBr displacement fluorescence quenching on CT-DNA; assay type: binding, calf; conditions: for KSV, Stern–Volmer quenching constant: EB-CT-DNA adduct
Protocol: Using fluorescence spectroscopy, the competitive binding relationship between metal complexes and CT-DNA bound to ethidium bromide was investigated. EtBr and CT-DNA solutions at a 5 mM concentration were made in PBS buffer (pH 7.4) for the fluorescence studies. After that, the reference solutions were allowed to settle at room temperature for an hour and the CT-DNA reference solution (200 μM) was coupled to ethidium bromide (50 μM) and allowed to rest for the specified period. The excitation and emission wavelengths were set at 460 nm and incremental addition of Ti(IV) complex concentrations ranging from 0 to 80 μM were used to titrate constant concentrations of EtBr-CT-DNA solution.[43,44]
A known volume of 200 μM CT-DNA (5 Mm) and 50 μM EB was mixed with an aqueous PBS buffer to make an EB-CT-DNA solution. The mixture was then kept at room temperature for 20 minutes before the complexes were titrated. Analysis of the competitive interaction mechanisms of the complexes towards CT-DNA involved the incremental addition of Ti(IV) complexes to the mixture of EB-CT-DNA. The modification in the emission spectral profile of EB-DNA indicated the impact of the addition of the complexes and there was a noticeable decrease in inflorescence intensity when the Ti(IV) complexes (0–100 μM) were added to the EB-CT-DNA system (Fig. 4(a), ESI Fig. S63 ^† and Table 2).
The linear plot of I0/I versus [complex] […] KSV is the Stern–Volmer quenching constant, and [Q] is the quencher concentration.6 Kapp × [Complex]50 = KEtBr × [EtBr]For the Ti(IV) complexes, Kapp (the apparent binding constant) was calculated using eqn (6), where KEtBr (1.0 × 10^7 M^−1) is the DNA binding constant of EB, [EtBr] is the concentration of EB = 10 μM and [Complex]50 denotes the complex concentration at which the fluorescence intensity of the DNA-EB adduct is reduced to 50%. […] Furthermore, the number of binding sites (n) and the equilibrium binding constant K were ascertained by using the Scatchard eqn (7):7 Log(I0 − I/I) = log K + n log[Q]where I0 is the fluorescence intensity of CT-DNA + EtBr in the absence of complex and I points to the fluorescence intensities of CT-DNA in the presence of a complex of concentration [Q]. The significant quenching in fluorescence intensity of all metal complexes (Table 2), the Stern–Volmer (ESI Fig. S64 ^†) and Scatchard plots (Fig. 4(c), ESI Fig. S65 ^† and Table 2), and other computations performed, supported the strong groove-binding interaction mode with CT-DNA.

[1] = n-Octanol/water partition coefficient, shake flask method; assay type: physicochemical; conditions: partition coefficient of n-octanol/water
Protocol: Drugs were measured for oral bioavailability and cellular accumulation using their lipophilicity. This can be stated as the log P value of the n-octanol/water partition coefficient, which is an essential prerequisite for many in silico medicinal chemistry approaches. The n-octanol/water partition coefficient (log Po/w), where Po/w = the octanol/water partition coefficient, was analyzed using the shake flask method. The experimental log Po/w values of these complexes were discovered to be between 0.12 and 0.87 (ESI Fig. S60 ^† and Table 1).

MCF7 cells = assay: MTT cytotoxicity assay, MCF7; assay type: cell-based, human; conditions: 48 h of drug exposure
Protocol: (§1) The in vitro cytotoxicity of the Ti(IV) complexes under investigation was investigated using MTT, a micro-titration colorimetric method. The in vitro cytotoxicity test of the Ti(IV) complexes was evaluated against the cervical cancer cell line (HeLa), human breast cancer cell line (MCF-7) and human kidney normal cell line (HEK-293).[65,66]
(§2) In the cytotoxicity assay, tetrazolium salt 3-[4,5-dimethylthiazol-2-yl]-2,5diphenyl tetrazolium bromide (MTT) was utilized to assess cell viability. The MTT powder was diluted in Dulbecco's PBS (stock solution of MTT (5 mg mL^−1)) to attain a final concentration of 0.5 mg mL^−1 and a […] was used to filter and sterilize the stock solution, which was then kept at 2–6 °C. In metabolically active cells, MTT is reduced to produce an insoluble purple formazan product. In the exponential phase, cells were taken out of the stored cultures after the 48-hour recovery period, following seeding onto 96-well plates at a density of 1 × 10^4 cells per well in 100 μL medium at 37 °C in a 95% air and 5% CO2 environment, and the cells were incubated for 12 hours. Cell lines were treated for 48 hours with Ti(IV) complexes at varying doses (9.5–300 μM) and cis-platin as a control (apart from normal cells). After 48 hours of incubation at 37 °C, the medium was removed and 100 μL of DMSO was added to dissolve the […], and the culture plates were shaken for five minutes. A Bio-Rad xMARK™ multi-well plate reader was used to measure the absorbance of each well at 570 nm. Using eqn (2), the percentage viability, which represents the relative viability of the treated cells in comparison to the control cells, was calculated, and the IC50 values and standard deviation of the substances under investigation were calculated in triplicate.2 [drawing 2]
(§3) An MTT assay was used to examine the cytotoxic effectiveness of the produced Ti(IV) complexes. After 48 hours of incubation, the cytotoxicity of Ti-1-IS to Ti-6-IBr was evaluated against human cancer cell lines, such as breast carcinoma (MCF7) and cervical cancer (HeLa), as well as the non-cancerous human embryonic kidney (HEK) cell line, by using the widely used therapeutic drug, cis-platin, as a positive control by following the standard protocol.

HeLa cells = assay: MTT cytotoxicity assay, HeLa; assay type: cell-based, human; conditions: for IC50: 48 h of drug exposure; for Selectivity: HeLa cell lines
Protocol: as §1, §2, §3

[2] = from eqn (6), complex concentration at 50% fluorescence

[O-]C(=NN=Cc1ccccc1[O-])c1ccncc1.[O-]C(=NN=Cc1ccccc1[O-])c1ccncc1.[Ti+4] [Ti-1-IS]
KSV, Stern–Volmer quenching constant (CT-DNA): 6000 M⁻¹
Kapp, apparent DNA binding constant (CT-DNA; [2]): 3.03e+06 M⁻¹
Log Po/w [1]: 0.87
IC50 (MCF7 cells): 109.22 ± 0.1 µM
IC50 (HeLa cells): 61.76 ± 0.1 µM

[O-]C(=NN=Cc1c([O-])ccc2ccccc12)c1ccncc1.[O-]C(=NN=Cc1c([O-])ccc2ccccc12)c1ccncc1.[Ti+4] [Ti-2-IN]
KSV, Stern–Volmer quenching constant (CT-DNA): 19000 M⁻¹
Kapp, apparent DNA binding constant (CT-DNA; [2]): 3.56e+06 M⁻¹
Log Po/w [1]: 0.78
IC50 (MCF7 cells): 85.04 ± 0.5 µM
IC50 (HeLa cells): 74.04 ± 0.5 µM

COc1cccc(C=NN=C([O-])c2ccncc2)c1[O-].COc1cccc(C=NN=C([O-])c2ccncc2)c1[O-].[Ti+4] [Ti-3-IO]
KSV, Stern–Volmer quenching constant (CT-DNA): 16000 M⁻¹
Kapp, apparent DNA binding constant (CT-DNA; [2]): 3.4e+06 M⁻¹
Log Po/w [1]: 0.13
IC50 (MCF7 cells): 102.9 ± 0.3 µM
IC50 (HeLa cells): 27.2 ± 1.1 µM
Selectivity (HeLa cells): > 29

[O-]C(=NN=Cc1cc(F)ccc1[O-])c1ccncc1.[O-]C(=NN=Cc1cc(F)ccc1[O-])c1ccncc1.[Ti+4] [Ti-4-IF]
KSV, Stern–Volmer quenching constant (CT-DNA): 14000 M⁻¹
Kapp, apparent DNA binding constant (CT-DNA; [2]): 3.41e+06 M⁻¹
Log Po/w [1]: 0.12
IC50 (MCF7 cells): 109.8 ± 0.2 µM
IC50 (HeLa cells): 47.3 ± 0.5 µM

[O-]C(=NN=Cc1cc(Cl)ccc1[O-])c1ccncc1.[O-]C(=NN=Cc1cc(Cl)ccc1[O-])c1ccncc1.[Ti+4] [Ti-5-ICl]
KSV, Stern–Volmer quenching constant (CT-DNA): 26000 M⁻¹
KSV, Stern–Volmer quenching constant (CT-DNA; text value): 26000 M⁻¹
Kapp, apparent DNA binding constant (CT-DNA; [2]): 3.43e+06 M⁻¹
Log Po/w [1]: 0.31
IC50 (MCF7 cells): 65.2 ± 1.2 µM
IC50 (HeLa cells): 24.2 ± 0.7 µM
Selectivity (HeLa cells): > 26

Brc1ccc2c(c1)C=NN=C(c1ccncc1)[O][Ti]1([O]C(c3ccncc3)=NN=Cc3cc(Br)ccc3[O]1)[O]2 (stereo not shown) [Ti-6-IBr]
Kapp, apparent DNA binding constant (CT-DNA): 4.24e+06 M⁻¹
KSV, Stern–Volmer quenching constant (CT-DNA): 16000 M⁻¹
Kapp, apparent DNA binding constant (CT-DNA; [2]): 4.24e+06 M⁻¹
Log Po/w [1]: 0.15
IC50 (MCF7 cells): 84.67 ± 0.5 µM
IC50 (HeLa cells): 78.64 ± 0.2 µM
